Experimental data from paper PMC9996706, “A curcumin direct protein biosensor for cell‐free prototyping” (Engineering Biology, 2022).

Molecular target: T1, EcCurA (E. coli curcumin reductase, double bond reductase) (Escherichia coli, UniProt P76113)
T1 construct: gene curA
T1 sequence (P76113 1-345): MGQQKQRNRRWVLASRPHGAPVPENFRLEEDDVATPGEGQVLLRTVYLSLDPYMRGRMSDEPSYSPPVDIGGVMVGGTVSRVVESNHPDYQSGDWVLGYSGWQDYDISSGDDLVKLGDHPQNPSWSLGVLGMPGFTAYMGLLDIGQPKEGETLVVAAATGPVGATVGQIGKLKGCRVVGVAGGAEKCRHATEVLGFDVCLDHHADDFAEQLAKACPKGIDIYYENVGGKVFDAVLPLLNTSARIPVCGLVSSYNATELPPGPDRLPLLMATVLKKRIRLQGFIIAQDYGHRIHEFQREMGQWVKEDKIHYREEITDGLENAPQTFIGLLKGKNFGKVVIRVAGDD
Assay: fluorescence titration
Assay type: binding

- Kd: 8.39 µM
Compound: COc1cc(/C=C/C(=O)CC(=O)/C=C/c2ccc(O)c(OC)c2)ccc1O [curcumin]
